For one assay, the system named is MOLM-14 cell line. Also noted: method as in PMID 26416749. The conditions noted are these: previously identified; cited from earlier work.
In a further assay the target is CDK19/CycC (Homo sapiens, UniProt Q9BWU1). The experiment in a line: Radiometric protein kinase assay (PanQinase, ProQinase).
A further assay addresses CDK8/CycC (Homo sapiens, UniProt P49336). Described as above.
A further assay relates to RNAP II CTD S2 and S5. The experiment in a line: RNAP II CTD phosphorylation in HCT-116 cells (WB). The class given is cell-based. The note with it: SEL120-34A up to 2.5 μM. The procedure: 0,1% SDS; 20 mM β-glicerol phosphate; 5 mM NaF; cat. # sc835), α-STAT5-pS726 (1:1000; Abcam, cat. # 1 mM Na3VO4) supplemented with protease inhibitors ab128896), α-STAT5-pY694 (1:1000; Cell Signaling, (Santa Cruz Biotechnology). Tumor samples were cat. #C11C5), α-tubulin (1:4000; Sigma, cat. # T5192) homogenized in 15 sec intervals and kept on ice between and β-actin (1:4000, Sigma cat. # A2066) or GAPDH homogenization cycles. Protein concentration in lysates (1:20000; Sigma, cat. # G9545) was measured by the Bradford assay and adjusted to achieve the same final concentration in each well (20-30 mRNA extraction from xenograft tissue μg protein/well). […] A scoop Unless indicated otherwise, membranes were blocked of a tumor (~25mg) was homogenized with a pestle for 45 min with 2% fat-free dried milk (Rovema, Poland) under liquid nitrogen and immediately processed in Tris-buffered saline (TBS) + 0.05% Tween (TBST), according to the RNeasy Mini Kit protocol (Qiagen). incubated overnight at 4°C with primary antibodies diluted The RNA concentration was measured by a NanoDrop into 2% milk in TBST and washed four times for 10 min spectrophotometer and stored at -80°C for downstream with TBST. […]
with the activities of CDK9 in cells. […] Protein levels of RNAP II CTD pS2, pS5, cMYC and GAPDH were measured by WB.

For another assay, the system named is STAT5 S726 and Y694. As to the kind of experiment: STAT phosphorylation in SET-2 cells (JAK2 V617F), WB. In kind it is cell-based. The conditions noted are these: 24 hours. On the procedure: (B) SEL120-34A inhibits IFN-dependent phosphorylation of STAT1 S727. HCT-116 cells stimulated with IFNg for 4 h were treated with increasing doses of SEL120-34A, Flavopiridol (F) or vehicle DMSO (C) to determine changes in the phosphorylation of STAT1 S727 and Y701, as measured by WB. (*) unspecific band. (C) SEL120-34A inhibits serine phosphorylation of STAT1 S727 and STAT5 S726, whereas Ruxolitinib inhibits tyrosine phosphorylation of STAT1 Y701 and STAT5 Y694 in JAK2 V617F cells. SET-2 cells were treated with Ruxolitinib, SEL120-34A or vehicle DMSO (C) for 24 hours and protein levels of pS727, pY701 STAT1 and pS726, pY694 STAT5 were measured by WB. […]
0,1% SDS; 20 mM β-glicerol phosphate; 5 mM NaF; cat. # sc835), α-STAT5-pS726 (1:1000; Abcam, cat. # 1 mM Na3VO4) supplemented with protease inhibitors ab128896), α-STAT5-pY694 (1:1000; Cell Signaling, (Santa Cruz Biotechnology). […] Protein concentration in lysates (1:20000; Sigma, cat. # G9545) was measured by the Bradford assay and adjusted to achieve the same final concentration in each well (20-30 mRNA extraction from xenograft tissue μg protein/well). […] Prior to microarray analyses, the quality of the incubation with secondary donkey anti-rabbit antibodies RNA samples was determined using an Agilent 2100 conjugated to HRP, used at 1:4000 (Cell Signaling, Bioanalyzer (Agilent Technologies, CA, USA). […]

For a further assay, the system named is Kasumi-1. As to the kind of experiment: Extended viability test (AlamarBlue). The class given is cell-based. The conditions noted are these: Homo sapiens, extended viability assay. In general terms: Resazurin is reduced to fluorescent resorufin, in cell work by metabolically active cells.
In a further assay the test system is PL-21. As to the kind of experiment: Extended viability test (AlamarBlue). The class given is cell-based. The conditions noted are these: extended viability assay.
The test system of another assay is Oci-AML5. The experiment in a line: Extended viability test (AlamarBlue). In kind it is cell-based. The conditions noted are these: Homo sapiens, OCI-AML-5; extended viability assay.
The next assay relates to AML cell lines. The experiment in a line: Broad profiling in a panel of AML cell lines (extended viability tests). The note with it: SKNO-1, KG-1, HEL-60, MOLM-16, MV-4-11, OciAML-2, MOLM-6 and OciAML-3; read-out: GI50 in sensitive responder cell lines. The class given is cell-based. On the procedure:
Mean GI50 (day 10) is shown and plotted on the graph (n=3). (D) Levels of phosphorylated STAT5 S726 and […] in AML cells from the panel C were measured by WB. Densitometry for STAT5 S726 and […] signals is shown and plotted on the graph. Cell lines from the panel D were divided into two classes based on the sensitivity to CDK8 inhibitors treatment (responders GI50<1 μM and non-responder GI50>1 μM), mean levels of STAT5 S726 (E) or STAT1 S727 (F) in selected cell lines measured by densitometry were presented on scatter plots. Differences between responder and non-responder were assessed by t-tests (p value is shown).
Cells grown in suspension were plated onto 96-well culture dishes in triplicate at 20000 cells per well in 200 μl of their culture medium, except Kasumi-1 cells, which were plated at 60 000/well. Cells were incubated in the presence of vehicle, 1 μM docetaxel (positive control, Santa Cruz Biotechnology) or 6 serially - diluted concentrations of tested compound. The compound effect was determined by AlamarBlue measurement. On days 3, 6-7 and 10, an equal volume from all wells was also split-back with fresh media supplemented with tested compound, resulting in a cell density for the vehicle well that matched the initial seeding density. […]

In the next assay the test system is SIG-M5. The experiment in a line: Extended viability test (AlamarBlue). The class given is cell-based. The note with it: Homo sapiens, extended viability assay.
A further assay relates to MOLM13. As to the kind of experiment: Extended viability test (AlamarBlue). In kind it is cell-based. The conditions noted are these: Homo sapiens, MOLM-13; extended viability assay.
Another assay has as its system ME-1. The experiment in a line: Extended viability test (AlamarBlue). The note with it: extended viability assay. In kind it is cell-based.
The subject of a further assay is GDM-1. As to the kind of experiment: Extended viability test (AlamarBlue). The class given is cell-based. The note with it: Homo sapiens, extended viability assay.
Another assay relates to SKM-1. The experiment in a line: Extended viability test (AlamarBlue). The class given is cell-based. The note with it: Homo sapiens, extended viability assay.
The test system of the next assay is MOLM16. As to the kind of experiment: Extended viability test (AlamarBlue). The class given is cell-based. The note with it: extended viability assay.
The test system of another assay is MV4-11. As to the kind of experiment: Extended viability test (AlamarBlue). The class given is cell-based. The note with it: Homo sapiens, extended viability assay.
Another assay deals with Oci-AML3. The experiment in a line: Extended viability test (AlamarBlue). The class given is cell-based. The conditions noted are these: Homo sapiens, OCI-AML-3; extended viability assay.
The test system of a further assay is KG-1. The experiment in a line: Extended viability test (AlamarBlue). In kind it is cell-based. The conditions noted are these: Homo sapiens, extended viability assay.
For a further assay, the system named is EOL-1. The experiment in a line: Extended viability test (AlamarBlue). The class given is cell-based. The note with it: Homo sapiens, EOL1; extended viability assay.

pIC50: −log10 of the molar value.

In general, pIC50 refers to the IC50 on a negative log10 scale, so that one unit is a factor of ten. Low readings indicate a high IC50, high ones a low IC50. A word on the GI50: it is the concentration that inhibits growth by half.

Chain of CDK8/CycC (P49336 whole entry): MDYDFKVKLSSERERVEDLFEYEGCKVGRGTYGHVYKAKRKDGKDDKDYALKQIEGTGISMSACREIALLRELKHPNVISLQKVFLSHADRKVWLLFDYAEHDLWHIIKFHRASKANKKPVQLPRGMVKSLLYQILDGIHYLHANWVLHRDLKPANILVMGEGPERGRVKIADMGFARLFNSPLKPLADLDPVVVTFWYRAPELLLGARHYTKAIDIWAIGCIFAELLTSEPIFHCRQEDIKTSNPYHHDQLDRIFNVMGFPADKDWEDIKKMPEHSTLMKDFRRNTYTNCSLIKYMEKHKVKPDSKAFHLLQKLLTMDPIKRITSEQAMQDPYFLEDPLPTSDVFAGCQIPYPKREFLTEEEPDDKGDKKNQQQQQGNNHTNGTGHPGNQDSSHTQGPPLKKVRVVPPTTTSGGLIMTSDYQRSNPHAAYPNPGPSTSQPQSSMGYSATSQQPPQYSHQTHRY
Chain of CDK8/CycC (P24863 whole entry partner): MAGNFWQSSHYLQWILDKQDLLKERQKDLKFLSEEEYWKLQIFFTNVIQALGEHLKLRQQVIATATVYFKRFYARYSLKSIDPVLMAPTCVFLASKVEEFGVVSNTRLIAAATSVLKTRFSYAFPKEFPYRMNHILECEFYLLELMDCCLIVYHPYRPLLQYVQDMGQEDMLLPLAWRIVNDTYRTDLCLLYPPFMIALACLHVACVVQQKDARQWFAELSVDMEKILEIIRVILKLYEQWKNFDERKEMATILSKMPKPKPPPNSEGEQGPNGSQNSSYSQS
Chain of CDK19/CycC (Q9BWU1 whole entry): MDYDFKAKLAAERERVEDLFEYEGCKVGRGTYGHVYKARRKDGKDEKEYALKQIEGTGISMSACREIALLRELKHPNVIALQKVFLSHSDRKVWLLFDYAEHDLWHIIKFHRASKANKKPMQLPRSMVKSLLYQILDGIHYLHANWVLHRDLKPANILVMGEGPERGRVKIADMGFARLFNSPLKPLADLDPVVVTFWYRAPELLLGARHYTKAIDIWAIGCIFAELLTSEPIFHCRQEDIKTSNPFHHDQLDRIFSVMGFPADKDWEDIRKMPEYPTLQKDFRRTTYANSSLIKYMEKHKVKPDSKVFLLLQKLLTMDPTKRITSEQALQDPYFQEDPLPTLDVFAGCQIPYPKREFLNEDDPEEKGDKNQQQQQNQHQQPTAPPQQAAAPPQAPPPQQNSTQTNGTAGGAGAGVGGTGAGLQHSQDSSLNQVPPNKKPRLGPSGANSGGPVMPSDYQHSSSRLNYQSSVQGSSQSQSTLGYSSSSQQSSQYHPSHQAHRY
Chain of CDK19/CycC (P24863 whole entry partner): as the sequence (P24863 whole entry partner) above
Source text for CDK19/CycC: (§1) A radiometric protein kinase assay (PanQinase® Activity Assay, ProQinase) was used for measuring activities of CDK8/CycC and CDK19/CycC protein kinases.
Source text for CDK8/CycC: as §1

For the compound `CN(C)[C@H]1C[C@@]23CC[C@@]4(O2)C(=CC[C@]2(C)[C@@H](c5ccc6ccncc6c5)CC[C@H]24)C=C3[C@@H](O)[C@@H]1O` [CA, Cortistatin A], in the assay with MOLM-14 cell line, the “sensitivity of MOLM-14 cell line to treatment” value was “sensitive”.
As to `Cn1cc(-c2ccc(-c3cncc(Cl)c3N3CCC4(CCNC4=O)CC3)cc2)cn1` [CCT251545, reference compound], the pIC50 is 7.84 against CDK19/CycC and 8.38 against CDK8/CycC.
With `CN1CC[C@H](c2c(O)cc(O)c3c(=O)cc(-c4ccccc4Cl)oc23)[C@H](O)C1` [Flavopiridol, reference compound], the “RNAP II CTD phosphorylation at S2 and S5” value in the assay with RNAP II CTD S2 and S5 is “active”.
As for `N#CC[C@H](C1CCCC1)n1cc(-c2ncnc3[nH]ccc23)cn1` [Ruxolitinib, reference compound], in the assay with STAT5 S726 and Y694, the “STAT5 S726 phosphorylation” value was “unaffected” and the “STAT5 Y694 phosphorylation” value is on record as “inhibition”.
For the compound `CN1CCN(C(=O)c2ccc3cc(CCNc4ncnc5ccc(C#N)cc45)ccc3c2)CC1` [Senexin B, reference compound], the GI50 is 5 µM with Kasumi-1; 2600 nM in the assay on PL-21; 70 nM in the assay with Oci-AML5; less than 1000 nM with AML cell lines; 5 µM in the assay with SIG-M5; 5 µM in the assay with MOLM13. The GI50 turned out to be 170 nM in the assay on ME-1; 270 nM in the assay on GDM-1; 5 µM in the assay with SKM-1; 340 nM in the assay on MOLM16; 230 nM with MV4-11; 360 nM with Oci-AML3. In addition, the GI50 was 150 nM with KG-1 and 960 nM with EOL-1. At CDK8/CycC, this compound had a pIC50 of 7.76.

Source of the values: PMC5464911, “SEL120-34A is a novel CDK8 inhibitor active in AML cells with high levels of serine phosphorylation of STAT1 and STAT5 transactivation domains” (Oncotarget, 2017).
